Laboratory results: patent US20230406856A1, “SUBSTITUTED PYRROLO [2, 3-b] PYRIDINE AND PYRAZOLO [3, 4-b] PYRIDINE DERIVATIVES AS PROTEIN KINASE INHIBITORS” (Fochon Biosciences, Ltd., priority 2020, published 2023)

Legend:
BTK (C481S) = BTK (C481S) (Homo sapiens (Human), UniProt Q06187, C481S); assay: Kinase assay of BTK (C481S), [33P]-ATP filter-binding, at Reaction Biology Corporation; assay type: biochemical; conditions: 10 μM ATP, 6 nM BTK (C481S), pEY substrate, 20 min pre-incubation, 120 min reaction
BTK (C481S), sequence (Q06187 whole entry C481S): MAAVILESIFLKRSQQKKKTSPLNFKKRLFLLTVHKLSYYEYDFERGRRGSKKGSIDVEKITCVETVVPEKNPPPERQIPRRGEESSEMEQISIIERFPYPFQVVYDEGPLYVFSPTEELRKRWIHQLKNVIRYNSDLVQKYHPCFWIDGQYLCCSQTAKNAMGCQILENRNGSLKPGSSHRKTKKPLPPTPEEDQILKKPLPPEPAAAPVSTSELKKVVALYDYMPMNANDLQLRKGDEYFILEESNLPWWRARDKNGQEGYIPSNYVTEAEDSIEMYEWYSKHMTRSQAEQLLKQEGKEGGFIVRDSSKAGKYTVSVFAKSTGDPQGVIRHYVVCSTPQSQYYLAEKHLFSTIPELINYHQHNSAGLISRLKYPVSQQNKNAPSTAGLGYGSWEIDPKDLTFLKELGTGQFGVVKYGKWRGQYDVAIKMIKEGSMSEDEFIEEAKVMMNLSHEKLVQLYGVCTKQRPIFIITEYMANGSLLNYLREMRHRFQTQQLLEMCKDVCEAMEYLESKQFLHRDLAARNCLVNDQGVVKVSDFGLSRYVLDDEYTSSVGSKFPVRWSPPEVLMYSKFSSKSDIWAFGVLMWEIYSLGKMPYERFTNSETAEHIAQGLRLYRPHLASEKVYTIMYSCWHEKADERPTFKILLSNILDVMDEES
Protocol: The kinase activity of BTK (C481S) was assayed at Reaction Biology Corporation. The substrate in the BTK (C481S) reaction, pEY (poly[Glu:Tyr] (4:1)) (Sigma, Cat. #P7244-250MG), was prepared in fresh reaction buffer (20 mM Hepes (pH 7.5), 10 mM MgCl2, 1 mM EGTA, 0.02% Brij35, 0.02 mg/ml BSA, 0.1 mM Na3VO4, 2 mM DTT, 1% DMSO). BTK(C481S) (SignalChem, Cat. #B10-12CH) was delivered into the substrate solution and mixed gently. The final concentrations of BTK (C481S) and the substrate in the reaction mixture were 6 nM and 0.2 mg/ml, respectively. Compounds were tested in 10-point concentration/response mode with 3-fold serial dilution steps starting at 1 μM.
Compounds in 100% DMSO were delivered into the kinase reaction mixture by acoustic liquid delivery technology (Echo550; nanoliter range) and incubated for 20 min at room temperature. 10 μM [^33P]-ATP (ATP: Sigma, Cat #: A7699; [^33P]-ATP: Hartmann Analytic, Cat #: SCF-301-12) was delivered into the reaction mixture to initiate the reaction. The mixture was incubated for 120 min at room temperature. Radioactivity was detected utilizing a proprietary filter-binding method. Kinase activity data were expressed as the percent remaining kinase activity in test samples compared to vehicle (DMSO) reactions. IC50 values were obtained using GraphPad Prism software.

DOHH2 cells = assay: Cell proliferation assay in DOHH2 cells (MTS); assay type: cell-based; conditions: Homo sapiens, DOHH-2, inhibition of DOHH2 cell proliferation, 120 h incubation
Protocol: To investigate whether a compound is able to inhibit the activity of BTK in cells, a mechanism-based assay using DOHH2 (DSMZ catalog #: ACC47) cell was developed. In this assay, inhibition of BTK was detected by the inhibition of DOHH2 cells proliferation. Cells were collected and plated onto 96-well plates at the optimized cell density (5000 cells/well). Plates were incubated at 37° C., with 5% CO2 for 4h. Compounds were serially diluted and added to the plates with the final concentrations as 10000, 3333.3, 1111.1, 370.4, 123.5, 41.2, 13.7, 4.6 and 1.5 nM. Plates were incubated at 37° C., with 5% CO2 for 120 h. An aliquot of 20 μL MTS/100 μL medium mixture solution were added to each well and the plates were incubated for exactly 2 h. The reaction was stopped by adding 25 μL 10% SDS to each well. The absorbance was measured by a microplate reader at 490 nm and 650 nm (reference wavelength). IC50 was calculated using GraphPad Prism 5.0.

[1] = Pharmacokinetics in male Sprague-Dawley rats, single oral gavage; assay type: in vivo; conditions: 5 mg/kg; for AUC(0-t) / half-life: rat, plasma
Protocol: The purpose of this study was to determine the pharmacokinetics of Example 1 and Example 2 in male Sprague-Dawley rats (Supplied by Beijing Vital River Laboratory Animal Technology Co., Ltd.).
Animals were administered with Example 1 and Example 2 by single oral gavage (PO) administration at 5 mg/kg, respectively, which was formulated in 10% DMSO (Sigma, Batch #STBJ2353): 60% PEG400 (PanReac AppliChem, Batch #1480132): 30% water at 2 mg/mL as a solution. Blood samples were collected at predose, 0.083, 0.25, 0.5, 1, 2, 4, 8, 12 and 24 hours post-dose. Concentrations of Example 1 and Example 2 in plasma were determined by LC/MS/MS (LC: Waters UPLC; MS: API4000).

[2] = Pharmacokinetics in male Beagle dogs, single oral gavage; assay type: in vivo
Protocol: The purpose of this study was to determine the pharmacokinetics of Example 1 in male Beagle dogs (Supplied by Marshall Bioresources, Beijing, China).
Animals were administered with Example 1 and Reference Compound 1 by single oral gavage (PO) administration at 3 mg/kg and 5 mg/kg, respectively, which was formulated in 10% DMSO (Sigma, Batch #STBJ2353): 60% PEG400 (PanReac AppliChem, Batch #1480132): 30% water at 5 mg/mL as a solution. Blood samples were collected at predose, 0.083, 0.25, 0.5, 1, 2, 4, 8, 12 and 24 hours post-dose. Concentrations of Example 1 and Reference Compound 1 in plasma were determined by LC/MS/MS (LC: Waters; MS: API4000).

SMILES	IC50 (BTK (C481S))	IC50 (DOHH2 cells)	F [1]	AUC(0-t) [1]	half-life [1]	other results
CS(=O)(=O)NC[C@@H]1CC[C@@H](Nc2c(F)cnc3[nH]cc(C(=O)c4ccc(Oc5ccccc5F)cc4F)c23)CO1 [Example 2, N-(((2S,5R)-5-((5-fluoro-3-(2-fluoro-4-(2-fluorophenoxy)benzoyl)-1H-pyrrolo[2,3-b]pyridin-4-yl)amino)tetrahydro-2H-pyran-2-yl)methyl)methanesulfonamide]	0.66 nM	27 nM	31%	8340 ng·h/mL	3.08 h	
CS(=O)(=O)NC[C@@H]1CC[C@@H](Nc2c(F)cnc3[nH]cc(C(=O)c4ccc(Oc5c(F)cccc5F)cc4F)c23)CO1 [Example 1, N-(((2S,5R)-5-((3-(4-(2,6-difluorophenoxy)-2-fluorobenzoyl)-5-fluoro-1H-pyrrolo[2,3-b]pyridin-4-yl)amino)tetrahydro-2H-pyran-2-yl)methyl)methanesulfonamide]	1.5 nM	1 nM	24.9%	4950 ng·h/mL	3.69 h	F ([2]; 3 mg/kg): 26.0%; AUC(0-t) ([2]; dog, 3 mg/kg, plasma): 3820 ng·h/mL; half-life ([2]; dog, 3 mg/kg, plasma): 15.6 h
CCS(=O)(=O)NC[C@@H]1CC[C@@H](Nc2c(F)cnc3[nH]cc(C(=O)c4ccc(Oc5c(F)cccc5F)cc4F)c23)CO1 [Example 6, N-(((2S,5R)-5-((3-(4-(2,6-difluorophenoxy)-2-fluorobenzoyl)-5-fluoro-1H-pyrrolo[2,3-b]pyridin-4-yl)amino)tetrahydro-2H-pyran-2-yl)methyl)ethanesulfonamide]		1 nM				
O=C(c1ccc(Oc2c(F)cccc2F)cc1F)c1c[nH]c2ncc(F)c(N[C@@H]3CC[C@@H](CNS(=O)(=O)C4CC4)OC3)c12 [Example 8, N-(((2S,5R)-5-((3-(4-(2,6-difluorophenoxy)-2-fluorobenzoyl)-5-fluoro-1H-pyrrolo[2,3-b]pyridin-4-yl)amino)tetrahydro-2H-pyran-2-yl)methyl)cyclopropanesulfonamide]		1 nM				
CCS(=O)(=O)NC[C@@H]1CC[C@@H](Nc2c(F)cnc3[nH]cc(C(=O)c4ccc(Oc5ccccc5F)cc4F)c23)CO1 [Example 3, N-(((2S,5R)-5-((5-fluoro-3-(2-fluoro-4-(2-fluorophenoxy)benzoyl)-1H-pyrrolo[2,3-b]pyridin-4-yl)amino)tetrahydro-2H-pyran-2-yl)methyl)ethanesulfonamide]		1 nM				
CCOc1cnc2[nH]cc(C(=O)c3ccc(Oc4ccccc4F)cc3F)c2c1N[C@@H]1CC[C@@H](CO)OC1 [Reference Compound 1, (5-ethoxy-4-(((3R,6S)-6-(hydroxymethyl)tetrahydro-2H-pyran-3-yl)amino)-JH-pyrrolo[2,3-b]pyridin-3-yl)(2-fluoro-4-(2-fluorophenoxy)phenyl)methanone, reference compound]						F ([2]; 5 mg/kg): 9.82%; AUClast ([2]; 5 mg/kg, plasma): 200 ng·h/mL; T1/2 ([2]; 5 mg/kg, plasma): 3.39 h
